The source of these data is patent US12643867B2, “Compositions and uses thereof” (University of Virginia Patent Foundation, priority 2017, dated 2026).

Assay [1] addresses T1, PAN3 (PAB-dependent poly(A)-specific ribonuclease subunit) (Homo sapiens, UniProt Q58A45).
T1 construct: Native kinases; endogenous in cells; host or cells: HEK293T soluble proteome
T1 sequence (Q58A45 1-887): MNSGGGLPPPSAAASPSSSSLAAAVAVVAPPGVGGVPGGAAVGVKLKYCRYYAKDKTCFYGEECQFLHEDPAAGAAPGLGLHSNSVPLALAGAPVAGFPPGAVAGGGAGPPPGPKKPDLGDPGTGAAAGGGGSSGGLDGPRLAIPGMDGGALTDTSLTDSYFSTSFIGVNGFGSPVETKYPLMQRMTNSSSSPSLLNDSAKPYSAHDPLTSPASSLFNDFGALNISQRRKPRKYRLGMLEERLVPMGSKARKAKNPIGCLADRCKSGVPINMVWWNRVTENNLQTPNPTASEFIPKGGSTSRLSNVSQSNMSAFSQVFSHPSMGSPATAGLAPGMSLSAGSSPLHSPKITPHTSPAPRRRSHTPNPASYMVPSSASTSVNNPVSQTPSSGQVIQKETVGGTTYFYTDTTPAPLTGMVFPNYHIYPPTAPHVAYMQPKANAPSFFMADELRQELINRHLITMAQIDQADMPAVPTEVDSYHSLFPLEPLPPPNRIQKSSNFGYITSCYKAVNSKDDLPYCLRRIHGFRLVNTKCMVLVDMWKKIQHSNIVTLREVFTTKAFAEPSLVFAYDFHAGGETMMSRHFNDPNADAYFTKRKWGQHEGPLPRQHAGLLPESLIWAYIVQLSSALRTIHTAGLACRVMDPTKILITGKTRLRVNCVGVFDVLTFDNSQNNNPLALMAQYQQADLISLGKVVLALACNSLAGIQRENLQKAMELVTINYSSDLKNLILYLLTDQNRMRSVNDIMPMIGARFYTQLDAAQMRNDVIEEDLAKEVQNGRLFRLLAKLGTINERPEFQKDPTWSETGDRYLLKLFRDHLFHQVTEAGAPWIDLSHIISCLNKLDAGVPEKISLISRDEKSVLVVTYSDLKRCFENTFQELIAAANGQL
Put plainly: SILAC LC-MS ATP acyl phosphate probe competition, native kinases in HEK293T. In kind it is binding. The following applies: site ATP; ATP 1 mM; Ketanserin, Ritanserin 100 μM; RF001 1 mM. An outline of the steps:
(§1)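 Light and heavy SILAC HEK293T proteomes (2 mg/ml in kinase buffer) were pre-treated with DMSO or compound (50× stock in DMSO) for 30 min at 25° C, then mixed 1:1, reduced, alkylated and digested with trypsin/Lys-C. Desthiobiotin-labelled peptides were avidin-enriched and analysed by LC-MS/MS on an Orbitrap, top-10 data-dependent acquisition.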

Assay [2] deals with T2, SMG1 (Serine/threonine-protein kinase SMG1) (Homo sapiens, UniProt Q96Q15).
T2 construct: Native kinases; endogenous in cells; host or cells: HEK293T soluble proteome
The description is as above. The assay is classed as binding. The following applies: site ATP; ATP 1 mM; Ketanserin, Ritanserin 100 μM; RF001 1 mM. An outline of the steps:
as §1

T2 sequence (Q96Q15 whole entry): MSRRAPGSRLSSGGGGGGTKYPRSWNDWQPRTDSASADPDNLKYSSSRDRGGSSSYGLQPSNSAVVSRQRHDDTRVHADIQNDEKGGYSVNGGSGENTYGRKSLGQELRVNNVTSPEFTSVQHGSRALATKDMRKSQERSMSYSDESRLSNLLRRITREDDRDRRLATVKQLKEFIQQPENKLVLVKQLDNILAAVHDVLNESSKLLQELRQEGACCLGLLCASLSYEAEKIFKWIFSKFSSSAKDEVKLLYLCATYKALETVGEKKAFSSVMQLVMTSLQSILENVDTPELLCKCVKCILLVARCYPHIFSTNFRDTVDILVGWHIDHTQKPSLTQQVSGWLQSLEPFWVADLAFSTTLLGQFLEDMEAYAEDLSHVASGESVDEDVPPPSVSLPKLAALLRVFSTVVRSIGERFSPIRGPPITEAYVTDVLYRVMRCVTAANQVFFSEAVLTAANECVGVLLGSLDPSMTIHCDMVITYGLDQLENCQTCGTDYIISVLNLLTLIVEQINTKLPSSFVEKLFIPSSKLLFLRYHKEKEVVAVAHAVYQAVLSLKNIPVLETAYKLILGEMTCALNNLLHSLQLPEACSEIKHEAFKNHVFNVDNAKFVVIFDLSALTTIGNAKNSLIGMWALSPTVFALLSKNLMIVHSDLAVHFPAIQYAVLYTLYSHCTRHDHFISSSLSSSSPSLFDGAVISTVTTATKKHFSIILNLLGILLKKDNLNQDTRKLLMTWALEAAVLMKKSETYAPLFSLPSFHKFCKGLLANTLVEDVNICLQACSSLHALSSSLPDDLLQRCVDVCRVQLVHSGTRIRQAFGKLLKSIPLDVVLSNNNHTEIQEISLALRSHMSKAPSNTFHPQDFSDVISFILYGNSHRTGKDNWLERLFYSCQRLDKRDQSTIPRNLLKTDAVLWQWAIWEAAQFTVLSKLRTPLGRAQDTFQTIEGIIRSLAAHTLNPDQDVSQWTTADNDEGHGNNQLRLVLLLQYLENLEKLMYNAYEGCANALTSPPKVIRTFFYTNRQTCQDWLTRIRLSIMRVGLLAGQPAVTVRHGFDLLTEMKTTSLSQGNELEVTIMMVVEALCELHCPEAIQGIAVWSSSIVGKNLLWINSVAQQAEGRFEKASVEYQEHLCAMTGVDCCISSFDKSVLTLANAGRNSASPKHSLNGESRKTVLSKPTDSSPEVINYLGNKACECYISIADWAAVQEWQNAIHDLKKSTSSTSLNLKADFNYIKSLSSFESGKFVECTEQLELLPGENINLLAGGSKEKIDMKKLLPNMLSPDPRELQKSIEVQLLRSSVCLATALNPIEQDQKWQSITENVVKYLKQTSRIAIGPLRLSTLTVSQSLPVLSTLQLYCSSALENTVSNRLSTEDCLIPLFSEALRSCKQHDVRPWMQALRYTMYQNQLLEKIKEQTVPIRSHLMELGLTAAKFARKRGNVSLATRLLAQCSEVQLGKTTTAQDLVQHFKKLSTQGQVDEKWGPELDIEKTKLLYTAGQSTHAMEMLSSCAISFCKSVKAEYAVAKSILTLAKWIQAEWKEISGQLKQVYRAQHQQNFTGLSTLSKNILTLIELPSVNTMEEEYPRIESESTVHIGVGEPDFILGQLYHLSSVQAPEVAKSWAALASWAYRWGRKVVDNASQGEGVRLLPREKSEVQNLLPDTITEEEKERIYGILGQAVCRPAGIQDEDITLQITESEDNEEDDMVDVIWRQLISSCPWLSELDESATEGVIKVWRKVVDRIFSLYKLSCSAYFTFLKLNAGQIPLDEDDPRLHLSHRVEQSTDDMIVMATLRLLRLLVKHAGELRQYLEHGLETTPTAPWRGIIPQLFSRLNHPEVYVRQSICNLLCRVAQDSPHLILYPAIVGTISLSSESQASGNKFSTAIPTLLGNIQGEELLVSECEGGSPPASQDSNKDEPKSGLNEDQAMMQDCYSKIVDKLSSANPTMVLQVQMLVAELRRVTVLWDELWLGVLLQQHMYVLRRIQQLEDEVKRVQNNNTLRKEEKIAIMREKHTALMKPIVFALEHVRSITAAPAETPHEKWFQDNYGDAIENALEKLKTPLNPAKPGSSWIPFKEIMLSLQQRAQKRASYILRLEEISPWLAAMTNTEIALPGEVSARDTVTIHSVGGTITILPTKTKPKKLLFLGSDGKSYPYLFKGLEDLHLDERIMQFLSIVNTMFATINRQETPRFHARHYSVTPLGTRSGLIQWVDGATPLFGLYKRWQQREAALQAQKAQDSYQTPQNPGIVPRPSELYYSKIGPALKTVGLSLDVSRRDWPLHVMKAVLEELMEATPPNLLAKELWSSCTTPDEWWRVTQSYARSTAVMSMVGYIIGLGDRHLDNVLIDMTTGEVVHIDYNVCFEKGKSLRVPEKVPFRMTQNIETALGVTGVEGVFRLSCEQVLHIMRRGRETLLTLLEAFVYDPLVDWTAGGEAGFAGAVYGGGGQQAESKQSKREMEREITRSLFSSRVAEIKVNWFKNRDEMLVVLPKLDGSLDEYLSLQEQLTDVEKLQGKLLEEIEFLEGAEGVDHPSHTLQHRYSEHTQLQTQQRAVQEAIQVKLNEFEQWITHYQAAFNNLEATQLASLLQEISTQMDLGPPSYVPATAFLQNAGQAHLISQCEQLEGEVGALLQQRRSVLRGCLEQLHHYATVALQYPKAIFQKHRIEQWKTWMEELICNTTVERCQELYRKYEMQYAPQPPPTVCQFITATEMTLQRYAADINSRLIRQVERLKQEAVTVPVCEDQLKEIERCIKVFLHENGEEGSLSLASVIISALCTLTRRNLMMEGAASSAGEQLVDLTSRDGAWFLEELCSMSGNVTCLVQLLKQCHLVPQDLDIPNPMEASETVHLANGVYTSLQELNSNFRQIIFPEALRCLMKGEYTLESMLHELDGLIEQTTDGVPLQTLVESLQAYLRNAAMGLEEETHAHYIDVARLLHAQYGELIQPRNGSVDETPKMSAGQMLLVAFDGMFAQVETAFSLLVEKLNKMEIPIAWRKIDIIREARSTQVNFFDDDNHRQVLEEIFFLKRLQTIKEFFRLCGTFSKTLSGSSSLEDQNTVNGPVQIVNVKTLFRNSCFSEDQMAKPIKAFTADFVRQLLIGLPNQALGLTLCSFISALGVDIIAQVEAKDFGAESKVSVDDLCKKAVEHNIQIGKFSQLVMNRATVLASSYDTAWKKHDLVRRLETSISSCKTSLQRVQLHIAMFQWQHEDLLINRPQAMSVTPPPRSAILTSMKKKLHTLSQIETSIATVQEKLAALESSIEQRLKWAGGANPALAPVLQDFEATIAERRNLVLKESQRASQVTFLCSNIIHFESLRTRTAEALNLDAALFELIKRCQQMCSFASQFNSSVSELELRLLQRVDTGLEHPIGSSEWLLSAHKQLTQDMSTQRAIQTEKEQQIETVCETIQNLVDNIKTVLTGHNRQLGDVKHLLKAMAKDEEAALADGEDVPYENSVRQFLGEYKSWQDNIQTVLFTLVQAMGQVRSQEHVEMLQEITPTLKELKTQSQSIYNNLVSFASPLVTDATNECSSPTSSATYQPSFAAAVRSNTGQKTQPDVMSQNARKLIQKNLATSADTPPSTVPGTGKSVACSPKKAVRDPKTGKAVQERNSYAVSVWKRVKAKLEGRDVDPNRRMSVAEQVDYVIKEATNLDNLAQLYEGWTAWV

Consider `O=C(c1ccc(F)cc1)C1CCN(CCn2c(=O)[nH]c3ccccc3c2=O)CC1` [Ketanserin], for which the “SILAC ratio, PAN3 probe-modified peptide” value in assay [1] stood at 1.3. Further, in assay [2], the “SILAC ratio, SMG1 probe-modified peptide” value came to 1.3.
Turning to `Fc1ccc(C(=C2CCNCC2)c2ccc(F)cc2)cc1` [RF001, 4-(Bis(4-fluorophenyl)methylene) piperidine], the “SILAC ratio, PAN3 probe-modified peptide” value in assay [1] stood at 1.3. In addition, the “SILAC ratio, SMG1 probe-modified peptide” value in assay [2] turned out to be 1.0.
Turning to `Cc1nc2sccn2c(=O)c1CCN1CCC(=C(c2ccc(F)cc2)c2ccc(F)cc2)CC1` [Ritanserin], the “SILAC ratio, PAN3 probe-modified peptide” value in assay [1] turned out to be 1.8. The “SILAC ratio, SMG1 probe-modified peptide” value in assay [2] was 1.7.
